For three compounds, EC50 and MIC results are on record in patent publication US20230114728A1 (Venatorx Pharmaceuticals, Inc., priority 2019, published 2023).

≈ marks a conversion by molar mass, not a printed value.

A short description of assay [1]: Bocillin-FL fluorescence polarization competition binding assay, A. baumannii PBP3. As to conditions: fluorescence polarization competition binding assay using Bocillin-FL; column 3; read-out: 4. baumannii PBP1a Potency. The source says:
Example I: Experimental Method for Penicillin-Binding Protein Binding Assays with Bocillin-FL Via Fluorescence Polarization
To determine the ability of boronic acid-based test PBP inhibitors to bind Penicillin Binding Proteins (PBPs), Bocillin-FL (fluorescently-labeled penicillin V; ThermoFisher Scientific) was used in a fluorescence polarization (FP) competition binding assay to assess inhibitor binding to PBP2, PBP3 or PBP4 from Escherichia coli (K12), PBP3 from Pseudomonas aeruginosa (PA01), PBP1a, PBP2 and PBP3 from Acinetobacter baumannii (ATCC 19606), and PBP2 from Neiserria gonorrheae (FA19). PBPs were cloned and purified as described previously (E. coli PBPs, King, D. T, et al., ACS Infectious Diseases 2015, 1, 175-184; P. aeruginosa PBP3, Han et. al., PNAS 2010, 107 (51), 22002-22007; A. baumannii PBPs, Penwell et. al., Antimicrob. Agents Chemother. 2015, 59 (3), 1680-1689; N. gonorrhoeae PBP2, Singh et. al., J Biol. Chem. 2019, 294 (38), 14020-14032). To establish assay conditions for competition binding, enzyme titration/saturation binding experiments were initially performed. Bocillin-FL was prepared at 0.2 μM in a buffer comprised of 50 mM Hepes (pH 8.0), 300 mM NaCl and 5% (v/v) glycerol for reactions with E. coli, P. aeruginosa and N. gonorrhoeae PBPs, and 25 mM Tris (pH 8.0), 200 mM NaCl and 10% (v/v) glycerol and 0.005% (v/v) Tween 20 for reactions with A. baumannii PBPs. Saturation binding was performed by mixing 40 μl of PBP solutions ranging in concentrations from 0-24 μM with 40 μl of the 0.2 μM Bocillin-FL solution, in individual wells of a black 384-well microplate. FP was measured immediately upon mixing (Excitation, 490 nm; Emission, 520 nm; g-factor, 0.96), using a Cytation3 (BioTek) microplate reader and measured continuously for up to 120 minutes. […] The competition binding assay (80 μl final volume) was validated using beta-lactams and PBPs at final concentrations of: 1.5 μM, E. coli PBP3; 0.75 μM, P. aeruginosa PBP3; 1 μM A. baumannii PBP1a; 2.5 μM A. baumannii PBP2; 0.2 μM A. baumannii PBP3; and […] N. gonorrhoeae PBP2. Bocillin-FL was at 0.1 μM (0.05 μM with A. baumannii PBP1a) and beta-lactam concentrations ranged from 0-1000 μM. […] Bocillin-FL was added and the FP immediately measured for up to 60 minutes (90 minutes for E. coli PBP2). […] The beta-lactam potency was reported as the concentration of beta-lactam required to reduce the amount of PBP bound-Bocillin-FL by 50% (EC50). […] Binding assays for boronic acid PBP inhibitors were performed in an identical fashion for the respective PBPs
On the technique in general: In fluorescence polarisation assays a small probe gives low polarisation when free and higher when bound to something large.

Assay [2] relates to A. baumannii ATCC 17978. The assay is described as follows: Broth microdilution MIC in iron-depleted CAMHB (IDM). The assay is classed as cell-based. As to conditions: Acinetobacter baumannii, ATCC17978, read-out: Minimum Inhibitory Concentration, ATCC 17978. Here is the method: (§1) Example IV: In Vitro Antibacterial Assays in Iron-Depleted Cation-Adjusted Mueller-Hinton Broth
(§2) To determine the ability of test compounds to inhibit the growth bacterial strains under conditions of iron-depletion, classic cell based broth microdilution minimum inhibitory concentration (MIC) assays were employed. MIC assays are performed according to CLSI methods except where otherwise noted (CLSI, 2018 and CLSI, 2019). The reference type strain E. coli ATCC 25922 was used to determine the ability of the PBP inhibitors to inhibit the growth of Enterobacteriaceae. Wild-type P. aeruginosa ATCC 27853, A. baumannii ATCC 17978 and A. baumannii ATCC 19606, along with the hyper-permeable P. aeruginosa ATCC 35151, an engineered efflux pump-compromised strain of P. aeruginosa (ΔmexAB-oprM), and an engineered efflux-pump compromised strain of A. baumannii IL123 (ABΔ3-ARAEcPore) were used to determine the ability of PBP inhibitors to penetrate the outer membrane of P. aeruginosa and A. baumannii and assess antibacterial activity against these important gram-negative organisms.
(§3) Briefly, cryo-preserved bacterial cultures of challenge strains are streaked for isolation on appropriate agar medium, in this case cation-adjusted Mueller Hinton agar. Following incubation to allow growth of the colonies, plates are sealed with parafilm and stored refrigerated for up to two weeks. For preparation of assay inoculum and to ensure low variability, at least 5 colonies are picked from the agar plates with an inoculating loop and aseptically transferred to a culture tube containing 3 mL of iron-depleted cation-adjusted Mueller Hinton broth (IDM)—see below for IDM preparation. The broth culture is grown for 3-5 hours at 37° C. with shaking at 200 rpm. Meanwhile, 2-fold serial dilutions of test compounds are conducted in a 96-well plate with a final volume of 75 μL per well at 2-fold the final desired concentration. After the dilution plates are set up the growing cultures are then diluted in a cuvette containing IDM and the optical density is measured at 600 nm. The inoculum is diluted such that 75 μL of this culture in IDM results in a starting bacterial concentration of 2-8×10^5 CFU/mL when added to the dilution plates. The plates are incubated for 16-20 hours for Enterobacteriaceae and Pseudomonas and 20-24 hours for Acinetobacter at 37° C. The MIC values are read visually as the lowest concentration well with no bacterial growth.
(§4) Method for Iron-Depleted Cation-Adjusted Mueller Hinton Broth (IDM) Preparation:
(§5) • Prepare cation-adjusted Mueller Hinton broth as per the manufacturer's recommendations and autoclave. • Add 100 g/L Chelex 100 resin, cover with foil and incubate with stirring for 2 hours • Remove Chelex 100 resin by filtration with 0.45 μm filter flask • Add the following back to the medium: • CaCl2 dihydrate: 82.5 mg/L • MgCl2 hexahydrate: 94.1 mg/L • ZnSO4: 10 μM • Adjust pH of medium to 7.3 with 5 N HCl • Sterilize using a 0.22 µm filter flask
(In general: In broth dilution the organism is exposed to a series of concentrations in liquid medium.)

Assay [3] concerns A. baumannii ATCC 19606. The assay is described as above. Format: cell-based. As to conditions: Acinetobacter baumannii, ATCC19606, read-out: Minimum Inhibitory Concentration, ATCC 19606. Here is the method: as §1, §2, §3, §4, §5
In assay [4] the test system is A. baumannii CDC-0033 producing NDM-1, and OXA-94. Described as above. The settings on record: Acinetobacter baumannii, read-out: Minimum Inhibitory Concentration, CDC-0033. The assay is classed as cell-based. The protocol: as §1, §2, §3, §4, §5
Assay [5] has as its system A. baumannii CDC-0036 OXA-65, and OXA-24. The description is as above. The assay is classed as cell-based. The settings on record: Acinetobacter baumannii, read-out: Minimum Inhibitory Concentration, CDC-0036. Here is the method:
as §1, §2, §3, §4, §5

The subject of assay [6] is A. baumannii CDC-0083 producing NDM-1, PER-7, OXA-23, and OXA-69. Described as above. Format: cell-based. The settings on record: Acinetobacter baumannii, read-out: Minimum Inhibitory Concentration, CDC-0083. Here is the method: as §1, §2, §3, §4, §5
For assay [7], the system named is P. aeruginosa (ΔmexAB-oprM). The description is as above. As to conditions: Pseudomonas aeruginosa, read-out: Minimum Inhibitory Concentration, P. aeruginosa ΔmexAB-OprM. The assay is classed as cell-based. Here is the method:
as §1, §2, §3, §4, §5

Assay [8] relates to P. aeruginosa ATCC 27853. The description is as above. The assay is classed as cell-based. The settings on record: Pseudomonas aeruginosa, ATCC27853, read-out: Minimum Inhibitory Concentration, P. aeruginosa ATCC 27853. The protocol:
as §1, §2, §3, §4, §5

Assay [9] deals with P. aeruginosa ATCC 35151. The description is as above. Format: cell-based. As to conditions: Pseudomonas aeruginosa, ATCC35151; iron-depleted MHB (IDM); hyper-permeable strain; read-out: Minimum Inhibitory Concentration, P. aeruginosa ATCC 35151. The protocol: as §1, §2, §3, §4, §5
In assay [10] the test system is P. aeruginosa CDC-0054 producing VIM-4, OXA-50, and PAO. The assay is described as above. The assay is classed as cell-based. The settings on record: Pseudomonas aeruginosa, read-out: Minimum Inhibitory Concentration, P. aeruginosa CDC-0054. Here is the method:
as §1, §2, §3, §4, §5

In assay [11] the test system is P. aeruginosa CDC-0095 producing OXA-50, and PAO. The description is as above. Format: cell-based. The settings on record: Pseudomonas aeruginosa, read-out: Minimum Inhibitory Concentration, P. aeruginosa CDC-0095. The protocol: as §1, §2, §3, §4, §5
For assay [12], the system named is A. baumannii CDC-0045 producing TEM-1D, OXA-23, and OXA-69. The assay is described as above. The settings on record: Acinetobacter baumannii, read-out: Minimum Inhibitory Concentration, CDC-0045. Format: cell-based.
For assay [13], the system named is P. aeruginosa CDC-0110. The assay is described as above. Format: cell-based. As to conditions: Pseudomonas aeruginosa, CDC0110, read-out: Minimum Inhibitory Concentration, P. aeruginosa CDC-0110. The protocol: as §2, §3, §4, §5

As to `NCCCN1CCN(C(=O)N[C@@H](C(=O)N[C@H]2Cc3ccc(F)c(C(=O)O)c3OB2O)c2c(F)c(F)c(O)c(O)c2Cl)C(=O)C1=O` [Example 227, (R)-3-((R)-2-(4-(3-aminopropyl)-2,3-dioxopiperazine-1-carboxamido)-2-(2-chloro-5,6-difluoro-3,4-dihydroxyphenyl)acetamido)-7-fluoro-2-hydroxy-3,4-dihydro-2H-benzo[e][1,2]oxaborinine-8-carboxylic acid], in [1], the EC50 is greater than 100 µM. In addition, the MIC in assay [2] is 0.25 µg/mL (≈ 0.38 µM); in assay [3], 0.25 µg/mL (≈ 0.38 µM); in assay [4] it was 8 to 16 µg/mL (≈ 12.2 to 24.3 µM); in assay [5], 2 to 4 µg/mL (≈ 3.04 to 6.08 µM); in [6], 2 to 4 µg/mL (≈ 3.04 to 6.08 µM); in assay [7] it was 0.25 µg/mL (≈ 0.38 µM). In addition, the MIC in assay [8] is 0.5 to 1 µg/mL (≈ 0.76 to 1.52 µM); in [9], 0.25 µg/mL (≈ 0.38 µM); in assay [10], 0.5 to 1 µg/mL (≈ 0.76 to 1.52 µM); in assay [11] it was 2 to 4 µg/mL (≈ 3.04 to 6.08 µM); in [12] it was 2 to 4 µg/mL (≈ 3.04 to 6.08 µM); in [13] it was 0.25 µg/mL (≈ 0.38 µM).
`CCN1CCN(C(=O)N[C@@H](C(=O)N[C@H]2Cc3ccc(F)c(C(=O)O)c3OB2O)c2c(F)c(F)c(O)c(O)c2Cl)C(=O)C1=O` [Example 228, (R)-3-((R)-2-(2-chloro-5,6-difluoro-3,4-dihydroxyphenyl)-2-(4-ethyl-2,3-dioxopiperazine-1-carboxamido)acetamido)-7-fluoro-2-hydroxy-3,4-dihydro-2H-benzo[e][1,2]oxaborinine-8-carboxylic acid]: in [1], the EC50 was 10 to 30 µM. Further, the MIC in [2] is 0.5 to 1 µg/mL (≈ 0.795 to 1.59 µM); in assay [3], 0.25 µg/mL (≈ 0.398 µM); in [4], 2 to 4 µg/mL (≈ 3.18 to 6.36 µM); in [5], 2 to 4 µg/mL (≈ 3.18 to 6.36 µM); in assay [6], 2 to 4 µg/mL (≈ 3.18 to 6.36 µM); in [7] it was 0.25 µg/mL (≈ 0.398 µM). Further, the MIC in [8] was 0.5 to 1 µg/mL (≈ 0.795 to 1.59 µM); in assay [9] it was 0.25 µg/mL (≈ 0.398 µM); in assay [10], 2 to 4 µg/mL (≈ 3.18 to 6.36 µM); in assay [12], 2 to 4 µg/mL (≈ 3.18 to 6.36 µM); in assay [13], 0.5 to 1 µg/mL (≈ 0.795 to 1.59 µM).
As for `CS(=O)(=O)N1CCN(C(=O)N[C@@H](C(=O)N[C@H]2Cc3ccc(F)c(C(=O)O)c3OB2O)c2c(F)c(F)c(O)c(O)c2Cl)C1=O` [Example 229, (R)-3-((R)-2-(2-chloro-5,6-difluoro-3,4-dihydroxyphenyl)-2-(3-(methylsulfonyl)-2-oxoimidazolidine-1-carboxamido)acetamido)-7-fluoro-2-hydroxy-3,4-dihydro-2H-benzo[e][1,2]oxaborinine-8-carboxylic acid], the EC50 in assay [1] fell in the range of 10 to 30 µM. Moreover, the MIC is 0.25 µg/mL (≈ 0.384 µM) in [2]; 0.5 to 1 µg/mL (≈ 0.768 to 1.54 µM) in assay [3]; 2 to 4 µg/mL (≈ 3.07 to 6.15 µM) in [4]; 2 to 4 µg/mL (≈ 3.07 to 6.15 µM) in assay [5]; 2 to 4 µg/mL (≈ 3.07 to 6.15 µM) in assay [6]; 0.25 µg/mL (≈ 0.384 µM) in assay [7]. The MIC in [8] was 0.5 to 1 µg/mL (≈ 0.768 to 1.54 µM); in assay [9], 0.25 µg/mL (≈ 0.384 µM); in assay [10], 2 to 4 µg/mL (≈ 3.07 to 6.15 µM); in assay [12], 8 to 16 µg/mL (≈ 12.3 to 24.6 µM); in assay [13], 0.5 to 1 µg/mL (≈ 0.768 to 1.54 µM).
